In patent US4698340A, “Pyrimidine derivatives, processes for preparation thereof and composition containing the same” (Fujisawa Pharmaceutical Co., Ltd., priority 1984, dated 1987):

Key:
[1] = tested on: Arachidonic Acid-Induced Cerebral Edema in Rat; assay: Effect on Arachidonic Acid-Induced Cerebral Edema in Rat; assay type: in vivo, rat (male Wistar); details: for Water content, Contralatelal hemisphere / Water content, Infarcted hemisphere: N = 6; for Water content, Infarcted hemisphere: **P < 0.01
Description: Effect on Arachidonic Acid-Induced Cerebral Edema in Rat
Male wistar rats were anesthetized with ethyl ether. The right lingual and occipital arteries were ligated. Retrograde cannulation was performed at the bifurcation of the external and internal carotid arteries via the upper part of the right external artery. Arachidonic acid dissolved in 10% ethyl alcohol and 0.4% Na2 CO3 was injected into the internal carotid artery in a dose of 2 mg/0.2 ml/kg at a speed of 0.08 ml/min. Two hours after the injection of arachidonic acid, the animals were decapitated and water content in the infarcted and contralatelal hemisphere was measured. The test drug was administered intraperitoneally 30 min before the injection of arachidonic acid.
(§1) Test compounds were dissolved in saline.

[2] = tested on: Rat Brain Mitochondria; assay: Effect on Lipid Peroxide Production in Rat Brain Mitochondria (malondialdehyde, thiobarbituric acid method); assay type: biochemical, rat (male Wistar); details: 1 hr at 37° C., 100 μM ascorbic acid, 20 μM FeSO4
Description: Effect on Lipid Peroxide Production in Rat Brain Mitochondria
Brain mitochondria from male Wistar rat was incubated with 100 μM ascorbic acid, 20 μM FeSO4 and test drug for 1 hr at 37° C. Malondialdehyde formed in the incubation mixture was measured by the thiobarbituric acid method according to Shimada et al (Biochem. Biophys. Acta, 489; 163-172. 1977)
Test compounds were dissolved in water

[3] = tested on: Mice Subjected to Anoxia; assay: Effect on Survival Time of Mice Subjected to Anoxia (100% N2); assay type: in vivo, mouse (male ICR); details: 30 min before anoxia, n = 10, **P < 0.01 vs control
Description: Effect on Survival Time of Mice Subjected to Anoxia (100% N2)
A pair of male ICR mice with the same age was maintained in a close glass chamber in which circulated a current of nitrogen gas, and measured survival time. One mouse was pretreated intraperitoneally with the test compound, and another with the vehicle 30 min before the experiment.
as §1

[4] = 32 mg/kg i.p. 30 min before arachidonic acid, vehicle (1) 78.7 ± 0.4, (2), (3) 79.4 ± 0.2
[5] = 32 mg/kg i.p. 30 min before arachidonic acid, vehicle (1) 81.9 ± 0.4, (2), (3) 81.5 ± 0.4

SMILES | Inhibition % (malondialdehyde formation) ([2]; at 10^-5 g/ml) [%] | Water content, Contralatelal hemisphere [1, 4] [%] | Water content, Infarcted hemisphere [1, 5] [%] | further results
CCCCC/C=C\C/C=C\C/C=C\C/C=C\CCCC(=O)O [Arachidonic acid, reference compound] |  |  |  | water content of the ipsilatelal hemisphere after injection into internal carotid artery (in words) ([1]; 2 mg/0.2 ml/kg, two hours after the injection): caused increase of water content
Cc1nc(-c2ccccc2)nc(-c2cccc([N+](=O)[O-])c2)c1C(=O)N1CCN(C)CC1 [Example 21, 6-methyl-5-(4-methylpiperazin-1-ylcarbonyl)-4-(3-nitrophenyl)-2-phenyl-pyrimidine] | 72.8 | 78.6 ± 0.1 | 79.7 ± 0.3 | 
COC(=O)c1c(C)nc(-c2ccccc2)nc1-c1cc([N+](=O)[O-])ccc1SC [Example 26, methyl 6-methyl-4-(2-methylthio-5-nitrophenyl)-2-phenyl-5-pyrimidinecarboxylate] |  |  |  | Inhibition % (malondialdehyde formation) ([2]; at 10^-4 g/ml): 90.9%
Cc1nc(-c2ccccc2)nc(-c2cccc([N+](=O)[O-])c2)c1C(=O)NCCN(C)C.O=C(O)/C=C/C(=O)O [Example 32, N-(2-dimethylaminoethyl)-6-methyl-4-(3-nitrophenyl)-2-phenyl-5-pyrimidinecarboxamide fumarate] |  | 79.3 ± 0.2 | 79.9 ± 0.1 | Survival time ([3]; 10 mg/kg intraperitoneally, control 30.5 ± 0.5): 37.0 ± 1.5 s; Survival time ([3]; 100 mg/kg intraperitoneally, control 39.0 ± 1.2): 50.0 s; Water content, Contralatelal hemisphere ([1]; 10 mg/kg i.p. 30 min before arachidonic acid, vehicle 78.7 ± 0.4): 79.0 ± 0.3%; Water content, Infarcted hemisphere ([1]; 10 mg/kg i.p. 30 min before arachidonic acid, vehicle 81.9 ± 0.4): 80.2 ± 0.1%
Cc1nc(-c2ccccc2)nc(-c2cccc([N+](=O)[O-])c2)c1C(=O)NCCN1CCSCC1 [Example 36, 6-methyl-4-(3-nitrophenyl)-2-phenyl-N-[2-(4-thiomorpholino)ethyl]-5-pyrimidinecarboxamide] | 70.2 | 78.9 ± 0.1 | 79.5 ± 0.2 | 
